Results published in the NIST ThermoML archive (doi:10.1016/j.jct.2018.08.035).
± gives the expanded uncertainty stated by the source.

Assay: xn = mol fraction of the nth substance listed
Conditions: 100 kPa, Liquid, Vibrating tube method

CCC(O)CC [3-pentanol] + C[N+](=O)[O-]
Conditions	mass density [kg/m3]
289.95 K, x1 = 0.3	1001.59 ± 2.1
289.95 K, x1 = 0.325	997.479 ± 2.1
289.95 K, x1 = 0.382	989.628 ± 2
289.95 K, x1 = 0.414	986.685 ± 2
289.95 K, x1 = 0.486	972.227 ± 2.1
289.95 K, x1 = 0.488	969.425 ± 2.1
289.95 K, x1 = 0.546	945.729 ± 2.2
289.95 K, x1 = 0.573	926.782 ± 2.4
289.95 K, x1 = 0.587	917.014 ± 2.2
289.95 K, x1 = 0.615	902.235 ± 2.2
289.96 K, x1 = 0.246	1008.64 ± 2.1
289.96 K, x1 = 0.338	995.659 ± 2
289.96 K, x1 = 0.363	992.594 ± 2
289.96 K, x1 = 0.407	986.452 ± 2
290.05 K, x1 = 0.266	1004.43 ± 2.1
290.05 K, x1 = 0.325	996.695 ± 2.1
290.05 K, x1 = 0.573	925.737 ± 2.4
290.05 K, x1 = 0.587	916.65 ± 2.3
290.06 K, x1 = 0.246	1008.03 ± 2.2
290.06 K, x1 = 0.275	1005.08 ± 2.1
290.06 K, x1 = 0.3	1000.6 ± 2.1
290.06 K, x1 = 0.338	994.875 ± 2
290.06 K, x1 = 0.363	991.838 ± 2
290.06 K, x1 = 0.382	988.825 ± 2
290.06 K, x1 = 0.407	985.25 ± 2
290.06 K, x1 = 0.414	985.261 ± 2
290.06 K, x1 = 0.486	971.285 ± 2.1
290.06 K, x1 = 0.488	967.998 ± 2.1
290.06 K, x1 = 0.546	944.207 ± 2.2
290.06 K, x1 = 0.615	897.967 ± 2.3
290.15 K, x1 = 0.246	1007.82 ± 2.2
290.15 K, x1 = 0.266	1003.31 ± 2
290.15 K, x1 = 0.275	1003.66 ± 2.1
290.15 K, x1 = 0.3	999.813 ± 2.1
290.15 K, x1 = 0.325	995.904 ± 2
290.15 K, x1 = 0.363	990.879 ± 2
290.15 K, x1 = 0.382	987.982 ± 2
290.15 K, x1 = 0.407	984.083 ± 2
290.15 K, x1 = 0.414	984.081 ± 2
290.15 K, x1 = 0.486	970.021 ± 2.1
290.15 K, x1 = 0.488	967.145 ± 2.1
290.15 K, x1 = 0.546	942.592 ± 2.2
290.15 K, x1 = 0.573	923.887 ± 2.3
290.15 K, x1 = 0.587	916.211 ± 2.3
290.15 K, x1 = 0.615	897.189 ± 2.3
290.15 K, x1 = 0.629	888.276 ± 1.9
290.16 K, x1 = 0.338	994.25 ± 2
290.25 K, x1 = 0.246	1007.68 ± 2.2
290.25 K, x1 = 0.266	1002.5 ± 2
290.25 K, x1 = 0.275	1002.12 ± 2.1
290.25 K, x1 = 0.3	999.25 ± 2
290.25 K, x1 = 0.325	995.232 ± 2.1
290.25 K, x1 = 0.363	990.096 ± 2
290.25 K, x1 = 0.382	987.239 ± 2
290.25 K, x1 = 0.407	983.056 ± 2
290.25 K, x1 = 0.414	982.887 ± 2
290.25 K, x1 = 0.486	968.242 ± 2.1
290.25 K, x1 = 0.488	965.719 ± 2.1
290.25 K, x1 = 0.546	941.205 ± 2.2
290.25 K, x1 = 0.573	924.811 ± 2.4
290.25 K, x1 = 0.587	914.293 ± 2.3
290.25 K, x1 = 0.615	896.918 ± 2.2
290.26 K, x1 = 0.338	993.457 ± 2
290.35 K, x1 = 0.246	1007.56 ± 2.2
290.35 K, x1 = 0.3	998.453 ± 2.1
290.35 K, x1 = 0.338	992.611 ± 2
290.35 K, x1 = 0.363	989.111 ± 2
290.35 K, x1 = 0.382	986.379 ± 2
290.35 K, x1 = 0.407	982.318 ± 2
290.35 K, x1 = 0.414	981.695 ± 2
290.35 K, x1 = 0.486	966.969 ± 2.1
290.35 K, x1 = 0.546	939.634 ± 2.2
290.35 K, x1 = 0.573	919.469 ± 2.4
290.35 K, x1 = 0.587	912.051 ± 2.2
290.35 K, x1 = 0.615	896.796 ± 2.1
290.36 K, x1 = 0.266	1001.61 ± 2.1
290.36 K, x1 = 0.275	1000.44 ± 2.1
290.36 K, x1 = 0.325	994.188 ± 2.1
290.36 K, x1 = 0.488	964.297 ± 2.1
290.45 K, x1 = 0.246	1007.43 ± 2.2
290.45 K, x1 = 0.275	998.669 ± 2.1
290.45 K, x1 = 0.363	988.212 ± 2
290.45 K, x1 = 0.382	985.548 ± 2
290.45 K, x1 = 0.407	981.549 ± 2
290.45 K, x1 = 0.414	980.935 ± 2
290.45 K, x1 = 0.486	965.653 ± 2.1
290.45 K, x1 = 0.488	962.338 ± 2.1
290.45 K, x1 = 0.546	938.388 ± 2.2
290.45 K, x1 = 0.573	918.938 ± 2.3
290.45 K, x1 = 0.587	911.848 ± 2.3
290.45 K, x1 = 0.615	891.445 ± 1.9
290.46 K, x1 = 0.266	1000.04 ± 2.1
290.46 K, x1 = 0.3	997.097 ± 2.1
290.46 K, x1 = 0.325	993.308 ± 2
290.46 K, x1 = 0.338	991.804 ± 2
290.55 K, x1 = 0.246	1007.31 ± 2.2
290.55 K, x1 = 0.363	987.195 ± 2
290.55 K, x1 = 0.382	984.63 ± 2
290.55 K, x1 = 0.407	980.769 ± 2
290.55 K, x1 = 0.414	980.125 ± 2
290.55 K, x1 = 0.486	963.548 ± 2.1
290.55 K, x1 = 0.546	936.105 ± 2.2
290.55 K, x1 = 0.573	918.841 ± 2.4
290.55 K, x1 = 0.587	907.457 ± 2.4
290.55 K, x1 = 0.615	891.334 ± 1.9
290.56 K, x1 = 0.266	999.223 ± 2.1
290.56 K, x1 = 0.275	997.256 ± 2
290.56 K, x1 = 0.3	995.648 ± 2.1
290.56 K, x1 = 0.325	992.372 ± 2
290.56 K, x1 = 0.338	990.851 ± 2
290.56 K, x1 = 0.488	960.605 ± 2.1
290.65 K, x1 = 0.246	1007.18 ± 2.2
290.65 K, x1 = 0.275	996.456 ± 2
290.65 K, x1 = 0.363	986.092 ± 2
290.65 K, x1 = 0.382	983.656 ± 2
290.65 K, x1 = 0.407	979.953 ± 2
290.65 K, x1 = 0.414	979.293 ± 2
290.65 K, x1 = 0.486	962.186 ± 2.1
290.65 K, x1 = 0.488	958.456 ± 2.1
290.65 K, x1 = 0.546	933.71 ± 2.2
290.65 K, x1 = 0.573	914.236 ± 2.3
290.65 K, x1 = 0.587	907.308 ± 2.2
290.65 K, x1 = 0.615	891.207 ± 1.9
290.66 K, x1 = 0.266	998.714 ± 2.2
290.66 K, x1 = 0.3	994.016 ± 2.1
290.66 K, x1 = 0.325	991.399 ± 2
290.66 K, x1 = 0.338	989.957 ± 2
290.75 K, x1 = 0.246	1007.05 ± 2.2
290.75 K, x1 = 0.266	998.54 ± 2.2
290.75 K, x1 = 0.275	995.309 ± 2.1
290.75 K, x1 = 0.338	988.906 ± 2
290.75 K, x1 = 0.363	984.963 ± 2
290.75 K, x1 = 0.382	982.614 ± 2
290.75 K, x1 = 0.407	979.022 ± 2
290.75 K, x1 = 0.414	978.364 ± 2
290.75 K, x1 = 0.486	960.473 ± 2.1
290.75 K, x1 = 0.488	956.964 ± 2.1
290.75 K, x1 = 0.546	931.465 ± 2.2
290.75 K, x1 = 0.573	914.122 ± 2.3
290.75 K, x1 = 0.587	904.315 ± 2.4
290.75 K, x1 = 0.615	891.079 ± 1.9
290.76 K, x1 = 0.3	992.118 ± 2.1
290.76 K, x1 = 0.325	990.346 ± 2
290.85 K, x1 = 0.246	1006.93 ± 2.2
290.85 K, x1 = 0.275	994.946 ± 2.2
290.85 K, x1 = 0.363	983.532 ± 2
290.85 K, x1 = 0.382	981.337 ± 2
290.85 K, x1 = 0.407	977.974 ± 2
290.85 K, x1 = 0.486	958.566 ± 2.1
290.85 K, x1 = 0.488	954.397 ± 2.1
290.85 K, x1 = 0.546	930.124 ± 2.2
290.85 K, x1 = 0.573	911.261 ± 2.4
290.85 K, x1 = 0.587	900.983 ± 2.5
290.86 K, x1 = 0.266	998.415 ± 2.2
290.86 K, x1 = 0.3	990.332 ± 2
290.86 K, x1 = 0.325	989.272 ± 2
290.86 K, x1 = 0.338	987.682 ± 2
